Test results from patent publication US9193731B2, “Antimicrobial compounds and methods of making and using the same” (Melinta Therapeutics, Inc., priority 2009, dated 2015).

System: Escherichia coli strain ATCC25922
Assay: standard microdilution assay to determine minimum inhibitory concentrations (MICs)
Type: cell-based
Details: for E. coli ATCC25922 MIC: Escherichia coli strain ATCC25922, microdilution; for MIC: Escherichia coli, ATCC25922, Escherichia coli strain ATCC25922, microdilution, read-out: E. coli ATCC25922 MIC
Procedure, shortened: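 Broth microdilution MIC against E. coli ATCC25922, following CLSI protocols, typically in a 100 microliter final volume. Results reported as +/− relative to a 16 micrograms/ml cutoff.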

Row | Compound | E. coli ATCC25922 MIC | MIC [µg/mL]
1 | N=C(N)NCCCNCc1ccc(-n2cc3cc(-c4ccc(S(=O)(=O)N(Cc5cc(Cl)cc(C(F)(F)F)c5)C5CCNCC5)cc4)[nH]c3nc2=O)cc1 [Compound 922] | + (a “+” indicates that the compound has an MIC value of 16 micrograms/ml or less) | 
2 | NCCCNCc1ccc(-n2cc3cc(CCS(=O)(=O)N(CC4CCOCC4)C4CCNCC4)[nH]c3nc2=O)cc1 [Compound 923] |  | < 16
3 | N=C(N)NCCCNCCCCCn1cc2cc(-c3ccc(S(=O)(=O)NC4CCNCC4)cc3)[nH]c2nc1=O [Compound 924] | + (a “+” indicates that the compound has an MIC value of 16 micrograms/ml or less) | 
4 | N=C1NCCCN1CCCCCn1cc2cc(-c3ccc(S(=O)(=O)NC4CCNCC4)cc3)[nH]c2nc1=O [Compound 925] |  | > 16
5 | N=C(N)NCCCNCc1ccc(-n2cc3cc(CCS(=O)(=O)NC4CCNCC4)[nH]c3nc2=O)cc1 [Compound 926] |  | < 16
6 | NCCCOCc1ccc(-c2cn3cc(-c4ccc(C(=O)NC5CCNCC5)cc4)[nH]c3nc2=O)cc1 [Compound 927] |  | > 16
7 | N=C(N)NCCCOCc1ccc(-c2cn3cc(-c4ccc(C(=O)NC5CCNCC5)cc4)[nH]c3nc2=O)cc1 [Compound 928] | + (a “+” indicates that the compound has an MIC value of 16 micrograms/ml or less) | 
8 | N=C(N)NCCCNCc1ccc(-n2cc3cc(CCS(=O)(=O)N(CC4CCOCC4)C4CCNCC4)[nH]c3nc2=O)cc1 [Compound 930] | + (a “+” indicates that the compound has an MIC value of 16 micrograms/ml or less) | 
9 | NCCCOCc1ccc(-c2cn3cc(-c4ccc(C(=O)N5CCNCC5)cc4)[nH]c3nc2=O)cc1 [Compound 931] | − (a “−” indicates that the compound has an MIC value greater than 16 micrograms/ml) | 
10 | N=C(N)NCCCOCc1ccc(-c2cn3cc(-c4ccc(C(=O)N5CCNCC5)cc4)[nH]c3nc2=O)cc1 [Compound 932] |  | > 16
11 | CNCc1ccc(-n2cc3cc(-c4ccc(S(=O)(=O)N(Cc5ccc(Cl)c(Cl)c5)C5CCNCC5)cc4)[nH]c3nc2=O)cc1 [Compound 933] | − (a “−” indicates that the compound has an MIC value greater than 16 micrograms/ml) | 
12 | N=C(N)NCCCNCc1ccc(-n2cc3cc(-c4ccc(S(=O)(=O)N(CCCn5ccc(C(F)(F)F)n5)C5CCNCC5)cc4)[nH]c3nc2=O)cc1 [Compound 934] | + (a “+” indicates that the compound has an MIC value of 16 micrograms/ml or less) | 
13 | NCc1ccc(-n2cc3cc(-c4ccc(S(=O)(=O)N(CC5CC5)C5CCNCC5)cc4)[nH]c3nc2=O)cc1 [Compound 935] | − (a “−” indicates that the compound has an MIC value greater than 16 micrograms/ml) | 
14 | CNCc1ccc(-n2cc3cc(-c4ccc(S(=O)(=O)N(CC5CC5)C5CCNCC5)cc4)[nH]c3nc2=O)cc1 [Compound 936] | − (a “−” indicates that the compound has an MIC value greater than 16 micrograms/ml) | 
15 | CN(CCCO)Cc1cc(-c2cc3cn(-c4ccc(CNCCCNC(=N)N)cc4)c(=O)nc3[nH]2)cc(N2CCNCC2)c1 [Compound 937] | + (a “+” indicates that the compound has an MIC value of 16 micrograms/ml or less) | 
16 | NCCCNCc1ccc(-n2cc3cc(-c4ccc([C@H]5OC(=O)N[C@@H]5CO)cc4)[nH]c3nc2=O)cc1 [Compound 939] |  | > 16
17 | CN(CCCO)C(=O)c1cc(-c2cc3cn(-c4ccc(CNCCCNC(=N)N)cc4)c(=O)nc3[nH]2)cc(N2CCNCC2)c1 [Compound 940] | + (a “+” indicates that the compound has an MIC value of 16 micrograms/ml or less) | 
18 | N=C(N)NCCCNCc1ccc(-n2cc3cc(-c4ccc(S(=O)(=O)NC5CCN(CCF)CC5)cc4)[nH]c3nc2=O)cc1 [Compound 943] | + (a “+” indicates that the compound has an MIC value of 16 micrograms/ml or less) | 
19 | N=C(N)NCCCNCc1ccc(-n2cc3cc(-c4ccc(C(NC5CCNCC5)C(F)(F)F)cc4)[nH]c3nc2=O)cc1 (stereo not shown) [Compound 944] | + (a “+” indicates that the compound has an MIC value of 16 micrograms/ml or less) | 
20 | NCc1ccc(-n2cc3cc(-c4ccc(S(=O)(=O)N(Cc5ccc(Cl)c(Cl)c5)C5CCNCC5)cc4)[nH]c3nc2=O)cc1 [Compound 945] |  | > 16
21 | NCc1ccc(-n2cc3cc(-c4ccc(S(=O)(=O)N(CCCC5CCCC5)C5CCNCC5)cc4)[nH]c3nc2=O)cc1 [Compound 946] |  | > 16
22 | CNCc1ccc(-n2cc3cc(-c4ccc(S(=O)(=O)N(CCCC5CCCC5)C5CCNCC5)cc4)[nH]c3nc2=O)cc1 [Compound 947] |  | > 16
23 | NCc1ccc(-n2cc3cc(-c4ccc(S(=O)(=O)N(CCCN5CCCCC5)C5CCNCC5)cc4)[nH]c3nc2=O)cc1 [Compound 948] |  | > 16

Row | Compound | E. coli ATCC25922 MIC | MIC [µg/mL]
24 | CN(Cc1cccnc1)C(=O)c1cc(-c2cc3cn(-c4ccc(CNCCCNC(=N)N)cc4)c(=O)nc3[nH]2)cc(N2CCNCC2)c1 [Compound 951] | − (a “−” indicates that the compound has an MIC value greater than 16 micrograms/ml) | 
25 | N=C(N)NCCCNCc1ccc(-c2cn3cc(CCc4cc(F)c(F)cc4F)[nH]c3nc2=O)cc1 [Compound 952] |  | > 16
26 | CN(Cc1cccc(F)c1)C(=O)c1cc(-c2cc3cn(-c4ccc(CNCCCNC(=N)N)cc4)c(=O)nc3[nH]2)cc(N2CCNCC2)c1 [Compound 957] | + (a “+” indicates that the compound has an MIC value of 16 micrograms/ml or less) | 
27 | N=C(N)NCCCNCc1ccc(-n2cc3cc(-c4ccc(S(=O)(=O)N(CC5(CO)CC5)C5CCNCC5)cc4)[nH]c3nc2=O)cc1 [Compound 958] | + (a “+” indicates that the compound has an MIC value of 16 micrograms/ml or less) | 
28 | CNCc1ccc(-n2cc3cc(-c4ccc(S(=O)(=O)N(CCCN5CCCCC5)C5CCNCC5)cc4)[nH]c3nc2=O)cc1 [Compound 959] | − (a “−” indicates that the compound has an MIC value greater than 16 micrograms/ml) | 
29 | N=C(N)NCCCN1CC=C(n2cc3cc(-c4ccc(S(=O)(=O)N(CCCN5CCCCC5)C5CCNCC5)cc4)[nH]c3nc2=O)CC1 [Compound 960] | + (a “+” indicates that the compound has an MIC value of 16 micrograms/ml or less) | 
30 | NCc1ccc(-n2cc3cc(-c4ccc(S(=O)(=O)N(Cc5ccc6nonc6c5)C5CCNCC5)cc4)[nH]c3nc2=O)cc1 [Compound 961] | − (a “−” indicates that the compound has an MIC value greater than 16 micrograms/ml) | 
31 | CNCc1ccc(-n2cc3cc(-c4ccc(S(=O)(=O)N(Cc5ccc6nonc6c5)C5CCNCC5)cc4)[nH]c3nc2=O)cc1 [Compound 962] | − (a “−” indicates that the compound has an MIC value greater than 16 micrograms/ml) | 
32 | N=C(N)NCCCNCc1ccc(-n2cc3cc(-c4cc(C(=O)NCCc5ccc(F)cc5)cc(N5CCNCC5)c4)[nH]c3nc2=O)cc1 [Compound 963] | + (a “+” indicates that the compound has an MIC value of 16 micrograms/ml or less) | 
33 | CN(CCc1ccccn1)C(=O)c1cc(-c2cc3cn(-c4ccc(CNCCCNC(=N)N)cc4)c(=O)nc3[nH]2)cc(N2CCNCC2)c1 [Compound 964] | − (a “−” indicates that the compound has an MIC value greater than 16 micrograms/ml) | 
34 | N=C(N)NCCCNCc1ccc(-c2cn3cc(C(=O)Nc4ccc(F)cc4)[nH]c3nc2=O)cc1 [Compound 965] |  | > 16
35 | N=C(N)NCCCN1CC=C(n2cc3cc(-c4ccc(S(=O)(=O)N(Cc5ccc(Cl)c(Cl)c5)C5CCNCC5)cc4)[nH]c3nc2=O)CC1 [Compound 966] | + (a “+” indicates that the compound has an MIC value of 16 micrograms/ml or less) | 
36 | N=C(N)NCCCN1CC=C(n2cc3cc(-c4ccc(S(=O)(=O)N(CCCC5CCCC5)C5CCNCC5)cc4)[nH]c3nc2=O)CC1 [Compound 967] | + (a “+” indicates that the compound has an MIC value of 16 micrograms/ml or less) | 
37 | CNCc1ccc(-n2cc3cc(-c4ccc(S(=O)(=O)N(CC5COc6ccccc6O5)C5CCNCC5)cc4)[nH]c3nc2=O)cc1 (stereo not shown) [Compound 968] | − (a “−” indicates that the compound has an MIC value greater than 16 micrograms/ml) | 
38 | N=C(N)NCCCN1CC=C(n2cc3cc(-c4ccc(S(=O)(=O)N(CC5CC5)C5CCNCC5)cc4)[nH]c3nc2=O)CC1 [Compound 969] | + (a “+” indicates that the compound has an MIC value of 16 micrograms/ml or less) | 
39 | N=C(N)NCCCNCc1ccc(-n2cc3cc(-c4cc(C(=O)NCC(F)F)cc(N5CCNCC5)c4)[nH]c3nc2=O)cc1 [Compound 970] | + (a “+” indicates that the compound has an MIC value of 16 micrograms/ml or less) | 
40 | N=C(N)NCCCNCc1ccc(-n2cc3cc(-c4cc(C(=O)NCC(F)(F)F)cc(N5CCNCC5)c4)[nH]c3nc2=O)cc1 [Compound 971] | + (a “+” indicates that the compound has an MIC value of 16 micrograms/ml or less) | 
41 | N=C(N)NCCCNCc1ccc(-c2cn3cc(C(=O)Nc4cccc(OC(F)(F)F)c4)[nH]c3nc2=O)cc1 [Compound 974] | − (a “−” indicates that the compound has an MIC value greater than 16 micrograms/ml) | 
42 | N=C(N)NCCCNCc1ccc(-c2cn3cc(CCc4cccc(OC(F)(F)F)c4)[nH]c3nc2=O)cc1 [Compound 975] | − (a “−” indicates that the compound has an MIC value greater than 16 micrograms/ml) | 
43 | N=C(N)NCCCNCC(O)Cn1cc2cc(-c3ccc(S(=O)(=O)NC4CCNCC4)cc3)[nH]c2nc1=O (stereo not shown) [Compound 977] | + (a “+” indicates that the compound has an MIC value of 16 micrograms/ml or less) | 
44 | N=C(N)NCCCNCc1ccc(-n2cc3cc(-c4cc(C(=O)Nc5cc(F)cc(F)c5)cc(N5CCNCC5)c4)[nH]c3nc2=O)cc1 [Compound 978] | + (a “+” indicates that the compound has an MIC value of 16 micrograms/ml or less) | 
45 | N=C(N)NCCCNCc1ccc(-n2cc3cc(-c4cccc(S(=O)(=O)N(Cc5ccc(Cl)c(Cl)c5)C5CCNCC5)c4)[nH]c3nc2=O)cc1 [Compound 979] | + (a “+” indicates that the compound has an MIC value of 16 micrograms/ml or less) | 
46 | N=C(N)NCCCNCc1ccc(-n2cc3cc(-c4cc(C(=O)N5Cc6ccccc6C5)cc(N5CCNCC5)c4)[nH]c3nc2=O)cc1 [Compound 981] | + (a “+” indicates that the compound has an MIC value of 16 micrograms/ml or less) | 
